This passage reports Normal melting temperature and surface tension liquid-gas results from the NIST ThermoML archive (doi:10.1016/j.jct.2018.12.021).

± gives the expanded uncertainty stated by the source.

What is called surface tension liquid-gas is the force per length acting along the surface.

The conditions of data set [1]: for Normal melting temperature: Crystal, DTA.
The nature of data set [2]: mn = molality of the nth substance listed, in mol/kg. The settings on record: 303.15 K, Ring tensiometer, m2 = 0.

On to `CCCCCCCCCCCC[n+]1ccsc1.[Br-]` [N-dodecylthiazolium bromide], for which, in data set [1], the Normal melting temperature amounted to 67 ± 0.7 °C.
For the compound `CCCCCCCCCCCC[n+]1cscc1C.[Br-]` [N-dodecyl-4-methylthiazolium bromide], the Normal melting temperature in data set [1] turned out to be 103.16 ± 0.7 °C.
Turning to `O` [water], in data set [1] (303.15 K, Liquid, Ring tensiometer), the surface tension liquid-gas is 71.14 ± 2.3 mN/m.
Turning to `O` [water] + CCCCCCCCCCCC[n+]1cscc1C.[Br-], the surface tension liquid-gas in data set [2] came to 71.14 ± 2.3 mN/m.
Still for that read-out and setting: to `O` [water] + CCCCCCCCCCCC[n+]1ccsc1.[Br-] belongs 71.14 ± 2.3 mN/m.
